From patent publication US20250230477A1, “A PROCESS FOR THE PREPARATION OF TETRAHYDROANTHRACENES FROM STREPTOMYCES SPP. AND ANTICANCER ACTIVITY THEREOF” (Council of Scientific and Industrial Research, priority 2021, published 2025)

How the values were obtained:
Bacillus cereus = experiment: MIC, microtiter broth dilution; format: cell-based; conditions: dilutions 2-500 μg/ml, overnight 37° C.
Experimental: (§1) The minimum inhibitory concentrations (MIC) of purified compound showing significant zones of inhibition in the preliminary antimicrobial assay using agar well diffusion method were evaluated. MIC assay was carried out by a microtiter broth dilution method with some modifications. Stock solution of each pathogen was prepared in normal saline solution i.e. 0.85% NaCl (w/v) at a concentration of 10^8 cells/ml and finally diluted with respective growth media to give approximately 10^5 CFU/ml for all organisms. Different dilutions of compound was prepared (2-500 μg/ml) by serial dilutions. 100 μl of each concentration (2-500 μg/ml) of the compound was loaded onto each well and was mixed with 100 μl of diluted pathogens containing 10^5 CFU/ml. […] The microtitre plates were then incubated overnight at 37° C. for bacterial pathogens and 28° C. for fungal pathogens and were analysed after incubation.

Bacillus subtilis = experiment: MIC, microtiter broth dilution; format: cell-based; conditions: dilutions 2-500 μg/ml, overnight 37° C.
Experimental: as §1

Micrococcus luteus = experiment: MIC, microtiter broth dilution; format: cell-based; conditions: dilutions 2-500 μg/ml, overnight 37° C.
Experimental: as §1

Staphylococcus aureus = experiment: MIC, microtiter broth dilution; format: cell-based; conditions: dilutions 2-500 μg/ml, overnight 37° C.
Experimental: as §1

MTT cytotoxicity = format: cell-based; conditions: human, FR2 cells, 100 μM concentration range
Experimental: (§2) 5×10^3 cells were seeded/well in a 96 well plate and treated with Compounds (1-3) for 48 hours with 100 μM concentration range to a panel of cancer cell lines. After 44 hour MTT with final concentration of 0.5 mg/ml were added to cells and incubated for 4 hour at 37° C. until formazon crystals are formed. MTT was removed and formazon crystals were lysed by DMSO for 30 minutes at 37° C., the absorbance was measured at 570 nm and the IC50 values were calculated using graph pad prism.

A549 = experiment: MTT cytotoxicity; format: cell-based; conditions: Homo sapiens, 48 hours, 100 μM concentration range
Experimental: as §2

HCT-116 [1] = experiment: MTT cytotoxicity; format: cell-based; conditions: Homo sapiens; HCT-116, MTT, 48 hours, 100 μM concentration range
Experimental: as §2

HT-29 [2] = experiment: MTT cytotoxicity; format: cell-based; conditions: Homo sapiens; HT-29, MTT, 48 hours, 100 μM concentration range
Experimental: as §2

MCF-7 [3] = experiment: MTT cytotoxicity; format: cell-based; conditions: Homo sapiens, MCF7; MCF-7, MTT, 48 hours, 100 μM concentration range
Experimental: as §2

MDA-MB-231 = experiment: MTT cytotoxicity; format: cell-based; conditions: Homo sapiens; MDA-MB-231, MTT, 48 hours, 100 μM concentration range
Experimental: as §2

MiaPaca-2 [4] = experiment: MTT cytotoxicity; format: cell-based; conditions: Homo sapiens, MIA PaCa-2; MiaPaca-2, MTT, 48 hours, 100 μM concentration range
Experimental: as §2

PC3 = experiment: MTT cytotoxicity; format: cell-based; conditions: Homo sapiens, PC-3, 48 hours, 100 μM concentration range
Experimental: as §2

Panc-1 = experiment: MTT cytotoxicity; format: cell-based; conditions: Homo sapiens; Panc-1, MTT, 48 hours, 100 μM concentration range
Experimental: as §2

HCT-116 [5] = experiment: Colony formation assay; format: cell-based; conditions: HCT-116, concentrations nearby the IC50, 5 days
Experimental: (§3) Colony formation assay was performed to further certify the antiproliferative properties of setomimycin in four different cancer cell lines viz. HT-29, MiaPaca-2, HCT-116 and MCF-7. Cells were seeded onto 6 well plates at seeding density 1×10^3 fells/well and treated with increasing concentration of setomimycin nearby the IC50 values for 5 days. Upon termination the cells were stained with 0.1% crystal violet for 20-30 minutes and washed with dH2O thoroughly. The images were taken from plates with NIKON camera (D3100). Average colonies (n=3) were quantified from different fields. Bar graphs represent the number of colonies (n=3, error bars indicate ±SD).

HT-29 [6] = experiment: Colony formation assay; format: cell-based; conditions: HT-29, concentrations nearby the IC50, 5 days
Experimental: as §3

MCF-7 [7] = experiment: Colony formation assay; format: cell-based; conditions: MCF-7, concentrations nearby the IC50, 5 days
Experimental: as §3

MiaPaca-2 [8] = experiment: Colony formation assay; format: cell-based, human; conditions: MiaPaca-2, concentrations nearby the IC50, 5 days
Experimental: as §3

HCT-116 [9] = experiment: Transwell invasion assay; format: cell-based; conditions: HCT-116, 48 hours, increasing concentration
Experimental: (§4) The above results depict significant antiproliferative effects of setomimycin in different cell lines near IC50 values. Transwell invasion assay was performed to check the anti-invasive properties of setomimycin. […] (A-B) 1.2×10^6 HCT-116 and MCF-7 cells were seeded in the upper chamber of inserts in serum free medium and treated with indicated concentration of setomimycin for 48 hours. (After 48 hours the invaded cells from lower insert were fixed with ice cold methanol and stained with 0.1% crystal violet for 20-30 minutes. After staining the inserts were washed with dH2O thoroughly and cells from three different fields in each treated condition were counted and photographed under an inverted microscope (20× magnifications). (C-D) Bar graph representing the number of invaded cells (n=3, error bars indicate ±SD).

MCF-7 [10] = experiment: Transwell invasion assay; format: cell-based; conditions: MCF-7, 48 hours, increasing concentration
Experimental: as §4

HCT-116 [11] = experiment: Scratch assay (migration); format: cell-based; conditions: HCT-116, concentrations within the range of IC50
Experimental: (§5) Scratch assay was performed in the panel of cancer cell lines with varying degree of invasive and migratory capabilities as shown in FIG. 4. Our results unveiled that setomimycin inhibited the migratory potential of all the cell lines treated with different concentration of setomimycin within the range of their IC50 values. […] 5×10^5 cells were seeded onto 6 well plate and grown upto more than 90% confluency. After the proper attachment of cells wounds were created with the help of a 20-200 μL sterile pipette tip. Subsequently the cells were treated with indicated concentration of setomimycin and vehicle (DMSO). The images were taken under inverted microscope at 20× magnification.

HT-29 [12] = experiment: Scratch assay (migration); format: cell-based; conditions: HT-29, concentrations within the range of IC50
Experimental: as §5

MCF-7 [13] = experiment: Scratch assay (migration); format: cell-based; conditions: MCF-7, concentrations within the range of IC50
Experimental: as §5

MiaPaca-2 [14] = experiment: Scratch assay (migration); format: cell-based, human; conditions: MiaPaca-2, concentrations within the range of IC50
Experimental: as §5

BCL-2 = experiment: Western blotting; format: cell-based; conditions: HCT-116 and MCF-7 cells, 48 h
Experimental: (§6) FIG. 5 Illustrates effect of setomimycin (Compound-3) pro-proliferative and anti-apoptotic protein targets in cancer cells: (A-B) Immunoblot analysis of ERK, p-MEK, Par-4, BCL-2 and β-actin in HCT-116 and MCF-7 cells treated with setomimycin for 48 h. (C-D) Densitometry analysis showing relative protein expression for the western blots presented Strong active potential of setomimycin against tumor cell proliferation and migration at nearby concentration of IC50 values was depicted by MTT data. Further, molecular docking studies predicted the strong affinity of setomimycin targeting MEK pathway. ERK and MEK are the major signaling pathways regulating cancer cell proliferation, differentiation and apoptosis. Therefore, Western blotting was carried out to check the effects of Setomimycin on ERK and MEK proteins.

ERK = experiment: Western blotting; format: cell-based; conditions: HCT-116 and MCF-7 cells, 48 h
Experimental: as §6

Par-4 = experiment: Western blotting; format: cell-based; conditions: HCT-116 and MCF-7 cells, 48 h
Experimental: as §6

Phospho MEK = experiment: Western blotting; format: cell-based; conditions: HCT-116 and MCF-7 cells, 48 h, increasing concentration
Experimental: as §6

[15] = tested on: Gram positive bacteria i.e. S. aureus, B. subtilis, B. cereus, and M. smegmatis; conditions: literature 1978; cited from earlier work
Sarcoma-180 = Sarcoma-180 mouse solid tumor model, 200 mg/kg per day for seven days; cited from earlier work

SMILES | Minimum Inhibitory Concentration (Bacillus cereus) | Minimum Inhibitory Concentration (Bacillus subtilis) | Minimum Inhibitory Concentration (Micrococcus luteus) | Minimum Inhibitory Concentration (Staphylococcus aureus) | IC50 at 48 h (MTT cytotoxicity) | IC50 (A549) | IC50 (HCT-116 [1]) | IC50 (HT-29 [2]) | IC50 (MCF-7 [3]) | IC50 (MDA-MB-231) | IC50 (MiaPaca-2 [4]) | IC50 (PC3) | IC50 (Panc-1) | other results
CC(=O)[C@H]1c2cc3cccc(O)c3c(O)c2C(=O)C[C@]1(C)O [Compound-1] | 12 | 12 | 6 | 25 | 48.7 µM | 38.9 µM | 10.4 µM | 8.64 µM | 9.56 µM | 13.6 µM | 12.7 µM | 14.7 µM | 15.6 µM | –
CC(=O)[C@H]1c2c(c(O)c3c(O)cccc3c2-c2c3c(c(O)c4c(O)cccc24)C(=O)C[C@](C)(O)[C@H]3C(C)=O)C(=O)C[C@]1(C)O [Compound-2] | 6 | 6 | 4 | 12 | 62.3 µM | 38.7 µM | 18.9 µM | 15.5 µM | 11.2 µM | 12.5 µM | 8.31 µM | 17.5 µM | 21.3 µM | –
CC(=O)[C@@H]1C(C)=CC(=O)c2c1c(-c1c3c(c(O)c4c(O)cccc14)C(=O)C[C@](C)(O)[C@H]3C(C)=O)c1cccc(O)c1c2O [Compound-3, Setomimycin] | 4 | 16 | 8 | 8 | 53.3 µM | 11.5 µM | 5.3 µM | 4.2 µM | 6.9 µM | 7.5 µM | 4.57 µM | 7.02 µM | 48 µM | Antiproliferative effect, colony formation (HCT-116 [5]): promising results near the IC50 values; Antiproliferative effect, colony formation (HT-29 [6]): promising results near the IC50 values; Antiproliferative effect, colony formation (MCF-7 [7]): promising results near the IC50 values; Antiproliferative effect, colony formation (MiaPaca-2 [8]): promising results near the IC50 values; Invasion of cells, transwell (HCT-116 [9]): significantly inhibited; Invasion of cells, transwell (MCF-7 [10]): significantly inhibited; Cell migration, scratch assay (HCT-116 [11]): inhibited the cell migration; Cell migration, scratch assay (HT-29 [12]): inhibited the cell migration; Cell migration, scratch assay (MCF-7 [13]): inhibited the cell migration; Cell migration, scratch assay (MiaPaca-2 [14]): inhibited the cell migration; BCL-2 (antiapoptotic protein) expression, Western blot (BCL-2): downregulated; ERK protein expression, Western blot (ERK): downregulation; Par-4 (pro-apoptotic protein) expression, Western blot (Par-4): upregulated; Phospho MEK expression, Western blot (Phospho MEK): down regulated; Activity against Gram positive bacteria [15]: active; Tumor growth (Sarcoma-180): reduce tumor growth
